Experimental data published in patent US8901157B2, “Compositions and methods of use of ritonavir for treating HCV” (AbbVie Inc., priority 2006, dated 2014).
Where two headings read alike, the source gives them in different places.

Legend:
[1] = Pharmacokinetics of SCH 503034 in rats, with or without coadministered ritonavir; assay type: in vivo, Sprague-Dawley derived rats; details: rat; for half-life: mean; for Cmax: po, 5 mg/kg; for C8 h: plasma at 8 h
in vivo = details: Sprague-Dawley, rat, 5 mg/kg
Description: (§3) The 1 mL/kg intravenous dose was administered as a slow bolus (˜1 minutes) in a jugular vein of the rats under isoflurane anesthetic; the 1 ml/kg oral dose (±ritonavir) was administered by gavage. Serial blood samples were obtained from a tail vein of each animal 0.1 (IV only), 0.25, 0.5, 1, 1.5, 2, 3, 4, 6 and 8 hours after dosing. The heparinized samples were placed on ice immediately following collection. Plasma was separated by centrifugation and stored frozen for subsequent analysis.
(§4) Concentrations of parent drug (and ritonavir) were determined by HPLC-MS/MS following liquid-liquid extraction of the plasma samples. Analysis was performed on a Sciex API 2000™ Biomolecular Mass Analyzer using Turbo Ion Spray. Peak areas of the title compounds and internal standards were determined using the Sciex MacQuan™ software. Calibration curves were derived from peak area ratio (parent drug/internal standard) of the spiked plasma standards using least squares linear regression of the ratio versus the theoretical concentration. The maximum plasma concentration (Cmax) and the time to reach the maximum plasma concentration (Tmax) were read directly from the observed plasma concentration-time data. The plasma concentration data were submitted to multi-exponential curve fitting using WinNonlin. The area under the plasma concentration-time curve from 0 to t hours (last measurable plasma concentration time point) after dosing (AUC0-t) was calculated using the linear trapezoidal rule for the plasma-time profiles. The residual area extrapolated to infinity, determined as the final measured plasma concentration (Ct) divided by the terminal elimination rate constant (β), was added to AUC0-t to produce the total area under the curve (AUC0-∞). The apparent total plasma clearance (CLp) was calculated by dividing the administered dose by the AUC0-∞. The volume of distribution, Vc, was estimated by dividing the dose by the extrapolated plasma concentration at time zero (C0). The volume of distribution at steady state, Vss, was estimated as a product of the plasma clearance (CLp) and the mean residence time (MRT); the terminal-phase volume of distribution, Vβ, was derived from the plasma clearance value (CLp) divided by the plasma elimination rate constant (β). The bioavailability was calculated as the dose-normalized AUC0-∞ from the oral dose divided by the corresponding value derived from an intravenous dose.

in vitro [2] = assay type: in vitro ADME; details: human, pH 7.4, human liver microsomes, read-out: Percent Inhibition of Metabolism by Ritonavir
Description: (§1) Liquid handling was carried out on a Tecan EVO robotic system. Triplicate incubations were carried out at a final test compound concentration of 1 μM with 0.5 mg/ml microsomal protein, and 1 mM NADPH. Pooled human liver microsomes (1 mg/ml protein) and NADPH cofactor (2 mM) were prepared in 50 mM phosphate buffer at pH 7.4. Stock solutions (10 mM) of VX-950 or SCH 503034 were prepared in DMSO and then diluted to 100 μM in 1:1 acetonitrile/water. The solutions of compounds were added into the NADPH cofactor solution containing 0, 0.8 or 8 μM of ritonavir in a 2 ml 96-well plate. The resulting solution was added to the microsomes (1:1) that had been pre-incubated for 10 minutes at 37° C. Samples (0.1 ml) were incubated in 96-well plates at 37° C. for 0, 10, 20 and 30 min in a Tecan 4-slot incubator. At each time point, the robotic arm removed one of the replicate plates and the reactions were stopped by adding 1 volume (100 μl) of acetonitrile with internal standard (0.05 μM buspirone) to each well. All plates were centrifuged at 3500 rpm for 30 min, and the supernatant was transferred to a 96-well injection plate. The plates were stored at 4° C. until analyzed.
(§2) LC-MS/MS analysis: The samples were analyzed in positive mode using the turbospray ion source of PE/Sciex API 4000 Q-Trap mass spectrometer with Shimadzu HPLC system. Samples were injected (5 μL) onto a Lancer C18 column (5 μm, 30×2.1 mm) from Analytical Sales and Services Inc. (Pompton Plains, N.J.) and separation occurred via a gradient: The flow rate was 0.5 mL/min; starting conditions of 7.5% B, 2.5% C, increasing to 30% B and 10% C at 0.4 min. […] Mobile phase A was 95/5 water/methanol (v/v) with 10 mM ammonium acetate and 60 μL/L acetic acid. Mobile phase B was methanol containing 10 mM ammonium acetate and 60 μL/L acetic acid. Mobile phase C was acetonitrile.
Using the above conditions, the presence of ritonavir inhibited the metabolism of VX-950 and SCH 503034 in the following manner:
Metabolism of VX-950 and SCH 503034 in Human Liver Microsomes in the Absence or Presence of Ritonavir

[3] = Pharmacokinetics of VX-950 in rats, with or without coadministered ritonavir; details: rat; for half-life: Sprague-Dawley, plasma, 5 mg/kg
Description: as §3, §4

[4] = Sprague-Dawley, rat, in vivo, 5 mg/kg
Description: as §3, §4

in vitro [5] = assay type: in vitro ADME; details: rat, pH 7.4, rat liver microsomes, read-out: Percent Inhibition of Metabolism by Ritonavir
Description: as §1, §2
Using the procedure of Example 1, but substituting rat liver microsomes for human liver microsomes, the presence of ritonavir inhibited the metabolism of VX-950 and SCH 503034 in the following manner: […]

[6] = Sprague-Dawley, plasma, PO 5 mg/kg, no ritonavir, mean (SEM), n=3
[7] = PO 5 mg/kg, no ritonavir, mean (SEM), n=3

For `CC(C)(C)NC(=O)N[C@H](C(=O)N1C[C@H]2[C@@H]([C@H]1C(=O)NC(CC1CCC1)C(=O)C(N)=O)C2(C)C)C(C)(C)C` (some centres unmarked) [SCH 503034, 3-[2-(3-tert-butyl-ureido)-3,3-diemthyl-butyryl]-6,6-dimethyl-3-aza-bicyclo[3.1.0]hexane-2-carboxylic acid (2-carbamoyl-1-cyclobutylmethyl-2-oxo-ethyl)-amide], the AUC ([1]; Sprague-Dawley, plasma, IV 5 mg/kg, mean (SEM), n=3) was 3120 ng·h/mL, the clearance ([1]; Sprague-Dawley, plasma, IV 5 mg/kg, mean (SEM), n=3, read-out: CLp (converted)) was 34 mL/min/kg and the Vd ([1]; Sprague-Dawley, plasma, IV 5 mg/kg, mean (SEM), n=3, read-out: Vss) was 0.53 L/kg. It also gave a half-life ([1]; Sprague-Dawley, plasma, IV 5 mg/kg, n=3) of 0.3 h, an AUC [1, 6] of 110 ng·h/mL and an AUC(0-t) ([1]; Sprague-Dawley, plasma, PO+ = 5 mg/kg oral SCH 503034 + 5 mg/kg oral ritonavir, mean (SEM), n=3, read-out: AUC (0-8 hr AUC)) of 2180 ng·h/mL. For the same molecule, the half-life ([1]; Sprague-Dawley, plasma, PO+ = 5 mg/kg oral SCH 503034 + 5 mg/kg oral ritonavir, n=3) was 2.5 h, the Cmax [1, 6] was 70 ng/mL and the Cmax ([1]; Sprague-Dawley, plasma, PO+ = 5 mg/kg oral SCH 503034 + 5 mg/kg oral ritonavir, mean (SEM), n=3) was 520 ng/mL. For the same molecule, the “plasma levels on coadministering with ritonavir” value ([1]; 5 mg/kg oral SCH 503034 + 5 mg/kg oral ritonavir vs SCH 503034 alone, FIG. 3) was “substantially elevated”, the Vβ ([1]; IV 5 mg/kg, mean (SEM), n=3) was 0.92 (0.29) L/kg and the F [1, 7] was 3.5 (1.5) %. The C8 h ([1]; PO 5 mg/kg, no ritonavir) was less than 0.001, the F ([1]; PO+ = 5 mg/kg oral SCH 503034 + 5 mg/kg oral ritonavir, mean (SEM), n=3) was 70.1 (7.0) % and the C8 h ([1]; PO+ = 5 mg/kg oral SCH 503034 + 5 mg/kg oral ritonavir) was 0.076.

For `CCC[C@H](NC(=O)[C@@H]1[C@H]2CCC[C@H]2CN1C(=O)[C@@H](NC(=O)[C@@H](NC(=O)c1cnccn1)C1CCCCC1)C(C)(C)C)C(=O)C(=O)NC1CC1` [VX-950, 2-(2-{2-cyclohexyl-2[(pyrazine-2-carbonyl)-amino]-acetylamino}-3,3-dimethyl-butyryl)-octahydro-cyclopenta[c]pyrrole-1-carboxylic acid(1-cyclopropylaminooxalyl-butyl)-amide], the AUC (in vivo; iv) was 3030 ng·h/mL, the Vd (in vivo; iv) was 2.4 L/kg and the clearance (in vivo; iv) was 28.3 mL/min/kg. For the same molecule, the AUC (in vivo; po) was 1050 ng·h/mL, the Tmax (in vivo; po, Tmax) was 1.1 h and the inhibition at 1 μM (in vitro [2]; ritonavir 0 micromolar) was 0%. It also gave an inhibition at 1 μM (in vitro [2]; ritonavir 0.4 micromolar) of 72%, an inhibition at 1 μM (in vitro [2]; ritonavir 4.0 micromolar) of 100% and a half-life ([3]; iv) of 2.8 h. For the same molecule, the half-life ([3]; po) was 1.7 h, the Cmax [3, 7] was 0.43 (0.15) μg/ml and the Vβ ([4]; iv) was 8.1 (2.6) L/kg. The F ([4]; po) was 34.8 (11.0) %, the C8 h ([4]; po, 8 h) was 0.018 and the inhibition at 30 min, 1 μM (in vitro [5]; ritonavir 0 micromolar) was 0%. It also gave an inhibition at 30 min, 1 μM (in vitro [5]; ritonavir 0.4 micromolar) of 61% and an inhibition at 30 min, 1 μM (in vitro [5]; ritonavir 4.0 micromolar) of 100%.
